Structures can show the parent of a compound that is named as a salt.
Key:
Conditions in all cases: exposure time 48 h
[1] = system: Caenorhabditis elegans N2; assay: AC50 for larval growth inhibition (Hill fit); higher = less potent
In short: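 AC50 values come from a constrained Hill fit by weighted genetic-algorithm regression and are censored when out of range. The fit used only wells with at least 10 worms. Each well of a 96-well plate held 50 synchronised C. elegans N2 L1 larvae in K-medium with killed OP50, 1% DMSO and 0.5–200 µM chemical for 48 h at 20°C. A COPAS Biosort recorded each worm's size as extinction, which was log-transformed and averaged per well.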

[2] = system: Caenorhabditis elegans N2; assay: lowest effective concentration for larval growth inhibition (size below effect threshold); higher = less potent
In short: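 Log-transformed well means of per-worm extinction, read as size on a Biosort, came from 50 C. elegans N2 L1 larvae per 96-well grown 48 h at 20°C in K-medium with killed bacteria, 1% DMSO and 0.5 to 200 µM chemical. The lowest effective concentration is the first dose at which the plate-adjusted mean size is below the threshold and stays below it at every higher dose. The threshold is 5.665.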

[3] = system: Caenorhabditis elegans N2; assay: mean nematode size ln(EXT) after 48 h, plate-adjusted (DMSO control set to 6) (ln(EXT), control-adjusted); higher = larger nematodes / less growth inhibition
In short: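 Chemical at 0.5–200 µM was tested on synchronised C. elegans N2 L1 larvae grown for 48 h at 20°C in K-medium with killed OP50 and 1% DMSO. Per-worm Biosort extinction, cleared of debris by a growth model, was natural-logged and averaged per well to give mean size. Plates were normalised by subtracting the vehicle control mean and adding 6.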

| Compound | AC50 for larval growth inhibition [1] | lowest effective concentration [2] | mean nematode size ln(EXT) (ln) ([3]; 0.5 µM) | mean nematode size ln(EXT) (ln) ([3]; 1 µM) | mean nematode size ln(EXT) (ln) ([3]; 5 µM) | mean nematode size ln(EXT) (ln) ([3]; 10 µM) | mean nematode size ln(EXT) (ln) ([3]; 50 µM) | mean nematode size ln(EXT) (ln) ([3]; 100 µM) | mean nematode size ln(EXT) (ln) ([3]; 200 µM) |
| --- | --- | --- | --- | --- | --- | --- | --- | --- | --- |
| CCC(C)N(C)C(=O)c1cc2ccccc2c(-c2ccccc2Cl)n1 (stereo not drawn) | 95.2 µM | 100 µM | 5.92 | 5.93 | 5.99 | 5.97 | 6.11 | 5.55 | 5.43 |
| CCCCCCCCCCCCN1CCCC1=O [N-Lauryl-2-pyrrolidone] | 16.1 µM | ≤ 0.5 µM | 5.42 | 5.51 | 5.45 | 4.97 | 3.49 | 3.53 | 3.03 |
| CCCCCCCCCC[N+](C)(C)CCCCCCCCCC [Didecyl dimethyl ammonium chloride] | 17 µM | 10 µM | 5.9 | 5.91 | 5.88 | 5.51 | 3.71 | 3.63 | 3.62 |
| COc1ccc(C(c2ccc(OC)cc2)C(Cl)(Cl)Cl)cc1 [Methoxychlor] | 39 µM | ≤ 0.5 µM | 5.6 | 5.46 | 5.58 | 5.19 | 4.71 | 4.01 | 3.61 |
| CC1=C(/C=C/C(C)=C/C=C/C(C)=C/C(=O)O)C(C)(C)CCC1 [Retinoic acid] | 16.6 µM | 10 µM | 5.96 | 5.78 | 5.8 | 5.58 | 4.47 | 4.33 | 4.41 |
| CCC(=O)C(CC(C)N(C)C)(c1ccccc1)c1ccccc1 (stereo not drawn) [Methadone Hydrochloride] | > 200 µM | 200 µM | 5.87 | 5.81 | 5.87 | 5.88 | 5.7 | 5.81 | 5.54 |
| CS(=O)(=O)c1ccc(C(=O)C2C(=O)CCCC2=O)c([N+](=O)[O-])c1 [Mesotrione] | 107 µM | 200 µM | 5.87 | 5.92 | 5.92 | 6.03 | 5.9 | 5.68 | 5.41 |
| CCOP(=S)(OCC)SCSCC [Phorate] | > 200 µM | 100 µM | 5.9 | 5.87 | 5.8 | 5.76 | 5.68 | 5.55 | 5.21 |
| O=NN(c1ccccc1)c1ccccc1 [N-Nitrosodiphenylamine] | > 200 µM | 200 µM | 6.12 | 6.03 | 6.08 | 6.08 | 6 | 5.87 | 5.26 |
| CCC(C)Nc1c([N+](=O)[O-])cc(C(C)(C)C)cc1[N+](=O)[O-] (stereo not drawn) [Butralin] | 48.9 µM | 50 µM | 5.81 | 5.77 | 5.75 | 5.8 | 4.89 | 4.04 | 4.68 |
| CN(C)C(=O)C1(N2CCCCC2)CCN(CCC2(c3ccc(Cl)c(Cl)c3)CN(C(=O)c3ccccc3)CCO2)CC1 (stereo not drawn) | 119 µM | 50 µM | 5.78 | 5.82 | 5.83 | 5.77 | 5.23 | 4.76 | 4.06 |
| c1ccc(/N=N/c2ccccc2)cc1 [Azobenzene] | 91.6 µM | 10 µM | 5.73 | 5.67 | 5.67 | 5.61 | 5.21 | 4.48 | 3.5 |
| CCC(C)c1cc([N+](=O)[O-])cc([N+](=O)[O-])c1O (stereo not drawn) [Dinoseb] | > 200 µM | 100 µM | 6.02 | 5.96 | 5.94 | 5.91 | 5.82 | 5.56 | 5.04 |
| CCOP(=O)(OCC)Oc1nc(Cl)c(Cl)cc1Cl [Chlorpyrifos oxon] | 1.24 µM | ≤ 0.5 µM | 4.98 | 4.42 | 4.26 | 4.05 | 3.47 | 3.24 | 3.15 |
| CCc1nn(C2CCCCC2)c2cc(C3(C#N)CCC(C(=O)O)CC3)ccc12 (stereo not drawn) | > 200 µM | 200 µM | 5.91 | 5.88 | 5.86 | 5.93 | 5.81 | 5.67 | 5.45 |
| [N-]=[N+]=[N-] [Sodium azide] | > 200 µM | 50 µM | 5.79 | 5.92 | 5.83 | 5.76 | 5.63 | 5.45 | 5.49 |
| CC(C)C(=O)Nc1ccc([N+](=O)[O-])c(C(F)(F)F)c1 [Flutamide] | 112 µM | 10 µM | 5.89 | 5.88 | 5.89 | 5.62 | 4.96 | 4.82 | 4.05 |
| C[C@]12CCC(=O)C=C1CC[C@@H]1[C@@H]2CC[C@]2(C)C(=O)CC[C@@H]12 [Androstenedione] | > 200 µM | 200 µM | 5.85 | 5.91 | 5.86 | 5.99 | 5.89 | 5.84 | 5.66 |
| COc1ccc(S(=O)(=O)N2C(=O)[C@@](c3ccccc3OC)(N3C[C@H](O)C[C@H]3C(=O)N(C)C)c3cc(Cl)ccc32)c(OC)c1 [Nelivaptan] | > 200 µM | 100 µM | 5.95 | 5.76 | 5.72 | 5.83 | 5.7 | 5.48 | 5.44 |
| CC(C)=CC1C(C(=O)OCN2C(=O)C3=C(CCCC3)C2=O)C1(C)C (stereo not drawn) [Tetramethrin] | 78.6 µM | 100 µM | 5.94 | 5.96 | 6.03 | 6.01 | 5.76 | 4.97 | 4.57 |
| CCCN(CCOc1c(Cl)cc(Cl)cc1Cl)C(=O)n1ccnc1 [Prochloraz] | 153 µM | 200 µM | 6.11 | 6.19 | 6.19 | 6.29 | 5.98 | 5.98 | 3.41 |
| CN(C)c1ccc(C(=O)c2ccc(N(C)C)cc2)cc1 [Michler's ketone] | > 200 µM | 200 µM | 5.78 | 5.87 | 5.83 | 5.78 | 5.82 | 5.88 | 5.58 |

From the supplement of paper PMC4858399
